Laboratory results reported in patent publication US6403777B1, “Metalloligands for cleaving nucleic acids” (The Ohio State University Research Foundation, priority 1999, dated 2002).

Key:
[1] = test system: Plasmid DNA; assay: Non-specific plasmid DNA cleavage (hydrolytic conditions), gel electrophoresis; type: biochemical
Protocol: The appearance of open circular DNA (form II) and the disappearance of supercoiled DNA (form I) was monitored via gel electrophoresis.
Metalloligands comprising the transition metal ions Fe, Mn, Co, and Ni were formed by mixing a 10 μM solution of the salts FeSO4, MnCl2, CoSO4, and NiCi2, and an equivalent volume of 10 μM kanamycin A for 12 h at 35 ° C. Complex formation was monitored by thin layer chromatography, using PrOH:Me2CO:NH4OAc (20%(aq)) (1:1:5:0.025) on silica gel plates. […]

[2] = Stability of the metalloligands in aqueous solution; conditions: purified complex
[3] = test system: R23 RNA; conditions: cited from earlier work
[4] = test system: R23 RNA; assay: Specific cleavage of 23-mer R23 RNA, FPLC analysis; type: biochemical
Protocol: The metalloligand is added to a sample containing substrate RNA with the recognized binding motif. Preferably, the RNA is in an aqueous solution having a pH of from about 7 to about 8. Preferably, the reaction is conducted at a temperatures ranging from 4° C. to about 40° C.

[5] = test system: poly(C); assay: Cleavage of poly(C); conditions: similar reaction conditions as R23
[6] = test system: linear oligo (A12-18); assay: Cleavage of linear oligo (A12-18); conditions: similar reaction conditions as R23
[7] = test system: R23 RNA; assay: Cleaving R23 RNA at select sites under oxidizing conditions; type: biochemical
Protocol: Uniformly labeled R23 RNA was incubated at 37° C. for 1 hr with various concentrations of Cu(kanamycin A) in the presence and absence of the co-reactants H2O2 and ascorbate. Cleavage products were separated on a denaturing polyacrylamide gel. […] These sites are depicted in FIG. 1. […] RNA cleavage of 30% was observed by FPLC with 1 nM Cu(kanamycin A) after incubation at 37° C. for 1 hour. Cleavage efficiencies of approximately 25% were obtained for solutions containing 50 pM Cu(kanamycin A) and 100 μM ascorbate or 1 μM H2O2 following incubation for 2 h at 37° C. Thus, Cu(kanamycin A) is able to selectively cleave RNA at physiological pH and under mild oxidizing conditions.

[8] = test system: Plasmid DNA; assay: Non-specific plasmid DNA cleavage under oxidizing conditions; type: biochemical; conditions: for cleavage of DNA without metalloligand: no metalloligand
Protocol: Plasmid DNA at a concentration of 50 μM, bp was added to a reaction solution containing 20 mM HEPES, pH 7.3, and the metalloligands of Examples 1-4 and the reducing agent ascorbic acid. […] The metalloligands of examples 1 to 4 also degraded plasmid DNA completely in the presence of 10 μM H2O2.
However, superoxide dismutase (SOD) and NaN3 inhibited oxidative DNA cleavage mediated by Cu(kanamycin A). Accordingly, it is believed that activated oxygen species (such as O2^− or ^1O2) are involved in plasmid cleavage when the metalloligand and the substrate DNA are reacted under oxidizing conditions.

Cu(neomycin B)
concentration at which plasmid DNA was cleaved (as low as) [1]: 100 nM

Cu(neamine)
stability in aqueous solution [2]: stable in aqueous solution for more than one day
time to appearance of open circular DNA (form II) ([1]; 0.1 μmolar complex, plasmid DNA 50 μM bp, 10 mM HEPES pH 7.3, 37 °C): within less than one hour

NC[C@@H]1O[C@H](O[C@H]2[C@@H](O)[C@H](O[C@@H]3[C@@H](O)[C@H](N)C[C@H](N)[C@H]3O[C@H]3O[C@H](CN)[C@@H](O)[C@H](O)[C@H]3N)O[C@@H]2CO)[C@H](N)[C@@H](O)[C@@H]1O [neomycin B]
binding affinity to R23 RNA [3]: high binding affinity

Cu(kanamycin A)
cleavage of structured 23 mer RNA ([4]; 10 nmol complex, pH 7.3, 37 °C, 90 minutes): Good results
hydrolysis of R23 RNA ([4]; 20 nM complex, 23-mer RNA 30 μM base pair, 90 minutes, 20 mM HEPES pH 7.3, FPLC): 54%
hydrolysis efficiency of R23 RNA ([4]; 100 nM complex instead of 20 nM): Hydrolysis efficiency increased
stability in aqueous solution [2]: stable in aqueous solution for more than one day
cleavage of poly(C) [5]: no cleavage
cleavage of linear oligo (A12-18) [6]: no cleavage
cleavage efficiency ([7]; 50 pM complex, 100 μM ascorbate or 1 μM H2O2, 2 h, 37 °C): approximately 25%
RNA cleavage ([7]; 1 nM complex, 37 °C, 1 hour, FPLC): 30%
sites of cleavage in R23 RNA ([7]; 37 °C, 1 hr, presence and absence of H2O2 and ascorbate, denaturing polyacrylamide gel): one in the loop region at G^15 and the other in the stem region at C^4
degradation of target RNA ([7]; nanomolar complex, 100 μM ascorbate or 1 μM H2O2): extremely efficient degradation
conversion of supercoiled DNA to linear form ([8]; 5 nM complex, 10 μM ascorbate, supercoiled DNA 51 μM base pair): Complete conversion
effect of hydroxy radical quenchers on oxidative DNA cleavage ([8]; DMSO and EtOH): did not inhibit
effect of SOD and NaN3 on oxidative DNA cleavage ([8]; superoxide dismutase (SOD) and NaN3): inhibited
nicking of plasmid DNA ([1]; 500 nM complex, 5 minutes, plasmid DNA 50 μM bp, 20 mM HEPES pH 7.3): At least some DNA was nicked
time to complete degradation of plasmid DNA ([1]; 1 μM complex, plasmid DNA 50 μM bp, 20 mM HEPES pH 7.3): ≤ 1 h
effect of quenchers on DNA cleavage ([1]; addition of SOD, NaN3, DMSO, EtOH): not inhibited
effect of excess metal-free aminoglycoside on DNA cleavage ([1]; addition of excess metal-free aminoglycoside): inhibited cleavage
DNA cleavage under anaerobic conditions ([1]; argon atmosphere): not inhibited

[Cu+2] [Cu^2+(aq), reference compound]
cleavage of DNA without metalloligand ([8]; Cu2+ and ascorbate): did not occur
cleavage of DNA without metalloligand ([8]; Cu2+(aq) alone): did not occur

Cu(kanamycin A)2
concentration at which plasmid DNA was cleaved (as low as) [1]: 100 nM
